Experimental data: the NIST ThermoML archive (doi:10.1016/j.jct.2015.08.033)

Assay: mn = molality of the nth substance listed, in mol/kg
Conditions: 100 kPa, Liquid; for speed of sound: Frequency=3 MHz, Sing-around technique in a fixed-path interferometer; for mass density: Vibrating tube method

O=S(=O)([O-])C(F)(F)F.O=S(=O)([O-])C(F)(F)F.[Mg+2] [magnesium triflate] + CN(C)C=O
Conditions	mass density, 298.15 K [kg/m3]	mass density, 303.15 K [kg/m3]	mass density, 308.15 K [kg/m3]	mass density, 313.15 K [kg/m3]	mass density, 318.15 K [kg/m3]	speed of sound, 298.15 K [m/s]	speed of sound, 303.15 K [m/s]	speed of sound, 308.15 K [m/s]	speed of sound, 313.15 K [m/s]	speed of sound, 318.15 K [m/s]
m1 = 0.01036	946.019	941.245	936.47	931.673	926.87	–	–	–	–	–
m1 = 0.01706	947.369	942.601	937.828	933.038	928.233	1457.4	1438.2	1418.9	1399.7	1380.5
m1 = 0.0217	948.297	943.537	938.762	933.973	929.172	1457.3	1438.2	1418.9	1399.8	1380.7
m1 = 0.03662	951.268	946.512	941.741	936.956	932.159	1457.3	1438.2	1419.1	1400	1380.9
m1 = 0.0512	954.144	949.392	944.627	939.848	935.055	1457.3	1438.2	1419.1	1400.1	1381.1
m1 = 0.06466	956.788	952.038	947.275	942.499	937.711	1457.2	1438.2	1419.1	1400.2	1381.2
m1 = 0.082	960.152	955.393	950.635	945.853	941.072	1457.1	1438.1	1419.1	1400.2	1381.3
m1 = 0.102	964.032	959.291	954.537	949.768	944.991	1456.9	1438	1419.1	1400.2	1381.5
m1 = 0.1234	968.107	963.366	958.615	953.853	949.079	1456.7	1437.9	1419	1400.3	1381.5
m1 = 0.1544	974.074	969.343	964.6	959.846	955.083	1456.4	1437.6	1418.9	1400.2	1381.6

O=S(=O)([O-])C(F)(F)F.O=S(=O)([O-])C(F)(F)F.[Sr+2] [strontium trifluoromethanesulfonate] + CC(=O)N(C)C
Conditions	mass density, 298.15 K [kg/m3]	mass density, 303.15 K [kg/m3]	mass density, 308.15 K [kg/m3]	mass density, 313.15 K [kg/m3]	mass density, 318.15 K [kg/m3]	speed of sound, 298.15 K [m/s]	speed of sound, 303.15 K [m/s]	speed of sound, 308.15 K [m/s]	speed of sound, 313.15 K [m/s]	speed of sound, 318.15 K [m/s]
m1 = 0.009611	938.686	934.078	929.46	924.833	920.199	1456.3	1436.5	1416.7	1397	1377.5
m1 = 0.01616	940.308	935.702	931.087	926.462	921.831	1456.5	1436.8	1417	1397.3	1377.8
m1 = 0.02452	942.361	937.757	933.142	928.518	923.888	1456.8	1437.1	1417.4	1397.8	1378.3
m1 = 0.0346	944.817	940.215	935.603	930.982	926.353	1456.9	1437.2	1417.5	1398	1378.6
m1 = 0.04877	948.237	943.637	939.026	934.407	929.78	1457.1	1437.5	1418	1398.6	1379.2
m1 = 0.06177	951.363	946.763	942.151	937.533	932.906	1457.3	1437.8	1418.3	1398.9	1379.7
m1 = 0.07813	955.261	950.663	946.052	941.432	936.806	1457.5	1438.1	1418.7	1399.3	1380.1
m1 = 0.09814	960.007	955.407	950.795	946.177	941.551	1457.7	1438.4	1419.1	1399.8	1380.7
m1 = 0.1176	964.581	959.98	955.367	950.748	946.121	1458	1438.8	1419.5	1400.3	1381.3
m1 = 0.1476	971.566	966.955	962.34	957.717	953.091	1458.3	1439	1419.8	1400.8	1381.8

O=S(=O)([O-])C(F)(F)F.O=S(=O)([O-])C(F)(F)F.[Sr+2] [strontium trifluoromethanesulfonate] + CN(C)C=O
Conditions	mass density, 298.15 K [kg/m3]	mass density, 303.15 K [kg/m3]	mass density, 308.15 K [kg/m3]	mass density, 313.15 K [kg/m3]	mass density, 318.15 K [kg/m3]	speed of sound, 298.15 K [m/s]	speed of sound, 303.15 K [m/s]	speed of sound, 308.15 K [m/s]	speed of sound, 313.15 K [m/s]	speed of sound, 318.15 K [m/s]
m1 = 0.01062	946.522	941.756	936.972	932.186	927.378	1457.2	1438	1418.7	1399.5	1380.3
m1 = 0.01763	948.231	943.466	938.685	933.888	929.08	1457.2	1438	1418.7	1399.6	1380.4
m1 = 0.02656	950.395	945.626	940.844	936.049	931.241	1457.1	1438	1418.7	1399.6	1380.5
m1 = 0.03847	953.244	948.482	943.704	938.91	934.105	1457	1437.9	1418.7	1399.6	1380.6
m1 = 0.04908	955.781	951.013	946.233	941.439	936.634	1456.8	1437.8	1418.6	1399.6	1380.6
m1 = 0.06765	960.189	955.42	950.641	945.845	941.04	1456.5	1437.6	1418.5	1399.5	1380.7
m1 = 0.08503	964.269	959.5	954.718	949.923	945.118	1456.2	1437.3	1418.3	1399.5	1380.6
m1 = 0.1067	969.35	964.567	959.781	954.985	950.18	1456.1	1437.1	1418.2	1399.3	1380.6
m1 = 0.1286	974.403	969.629	964.845	960.047	955.242	1455.4	1436.7	1417.9	1399.1	1380.5
m1 = 0.1612	981.851	977.074	972.285	967.485	962.676	1454.7	1436.1	1417.4	1398.8	1380.2
